{"source": "patent US20230158030A1", "about": "“METHODS AND COMPOSITION FOR TREATMENT OF COVID-19 ILLNESS REQUIRING HOSPITALIZATION” (OHIO STATE INNOVATION FOUNDATION, priority 2020, published 2023)", "origin": "cited, not measured here", "key": {"T-cell function": {"system": "T-cell function", "settings": "TLR agonists, PD1 blockade, CAR-T cells"}, "[1]": {"system": "CAR-T cell mediated cytokine release syndrome", "settings": "murine CAR-T cytokine release syndrome model"}, "pneumococcal pneumonia": {"system": "pneumococcal pneumonia", "settings": "murine pneumococcal pneumonia"}, "covid-19": {"system": "covid-19", "settings": "active covid-19 syndrome"}, "[2]": {"settings": "intranasally to mice starting 72 h after lethal infection"}}, "data": [{"smiles": "C=CC(=O)N1CCC[C@@H](n2nc(-c3ccc(Oc4ccccc4)cc3)c3c(N)ncnc32)C1", "note": "[ibrutinib, 1-[(3R)-3-[4-amino-3-(4-phenoxyphenyl)pyrazolo[3,4-d]pyrimidin-1-yl]piperidin-1-yl]prop-2-en-1-one]", "values": [{"measurement": "enhancement of other T-cell based therapies", "setting": "T-cell function", "result": "enhance other T-cell based therapies"}, {"measurement": "T-cell expansion or killing", "setting": "[1]", "result": "not abrogating T-cell expansion or killing"}, {"measurement": "survival", "setting": "[1]", "result": "improved survival"}, {"measurement": "antibiotic mediated killing of bacteria", "setting": "pneumococcal pneumonia", "result": "not impaired"}, {"measurement": "monocyte and neutrophil influx into the lung, alveolar macrophage activation, neutrophil influx, cytokine release and plasma leakage", "setting": "pneumococcal pneumonia", "result": "negatively influence"}, {"measurement": "overall survival", "setting": "influenza A virus; [2]", "result": "improved overall survival"}, {"measurement": "weight loss", "setting": "influenza A virus; [2]", "result": "diminished weight loss"}, {"measurement": "inflammatory mediators TNFalpha, IL-1beta, IL-6, KC, and MCP-1", "setting": "influenza A virus; mice, lethal influenza A", "result": "diminished"}, {"measurement": "morphological changes to the lungs", "setting": "influenza A virus; mice, lethal influenza A", "result": "decreased alveolar hemorrhage, interstitial thickening, and the presence of alveolar exudate"}]}, {"smiles": "CCN(CCO)CCCC(C)Nc1ccnc2cc(Cl)ccc12", "note": "(stereo not shown) [hydroxychloraquine]", "values": [{"measurement": "benefit among ill patients", "setting": "covid-19", "result": "antidotal benefit"}]}]}
